Each structure is given as a SMILES string.

One assay addresses T1, human 5-HT2C receptor (Homo sapiens, UniProt P28335).
T1 sequence (P28335 33-458): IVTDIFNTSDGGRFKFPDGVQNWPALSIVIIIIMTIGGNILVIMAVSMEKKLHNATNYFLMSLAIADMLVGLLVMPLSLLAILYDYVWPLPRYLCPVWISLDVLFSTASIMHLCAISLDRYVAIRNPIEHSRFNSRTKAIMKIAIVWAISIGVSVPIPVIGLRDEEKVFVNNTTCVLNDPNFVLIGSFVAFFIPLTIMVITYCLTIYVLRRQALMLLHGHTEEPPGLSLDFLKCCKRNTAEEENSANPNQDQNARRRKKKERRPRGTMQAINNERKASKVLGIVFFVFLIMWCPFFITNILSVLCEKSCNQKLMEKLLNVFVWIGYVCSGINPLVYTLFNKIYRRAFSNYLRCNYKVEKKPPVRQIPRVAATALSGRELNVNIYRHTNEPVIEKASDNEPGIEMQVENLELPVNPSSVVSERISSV
Description: 5-HT2C receptor-stimulated calcium mobilization (FLIPR) in CHO cells.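 As to all read-outs here: Fluo-3-AM fluorescence read on FLIPR every 1 s, agonist added after 10 baseline reads, response taken as peak minus lowest raw fluorescence count.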 It is filed as cell-based. The following applies: for EC50: calcium mobilization, CHO cells stably expressing human 5-HT2C, read-out: 5-HT2C Function EC50; for 5-HT2C Function Emax (%) / Emax: percentage of the response observed with a maximally effective concentration of 5-HT; for Emax: CHO, read-out: 5-HT2C Function Emax (%). Background: Calcium assays in cells follow changes in intracellular calcium, usually with a dye or a luminescent sensor.

The target in assay [1] is T2, human 5-hydroxytryptamine-2C (h5-HT2C) receptor (Homo sapiens, UniProt P28335).
T2 construct: expressed in transfected cells; host or cells: CHO (Chinese Hamster Ovary) cells; membranes
T2 sequence (P28335 33-458): T1 sequence (P28335 33-458)
The assay is described as follows: [125I]DOI binding to membranes of CHO cells expressing the human 5-HT2C receptor. Particulars: [125I]DOI radioligand, CHO cell membranes, room temperature 60 min; read-out: 5-HT2C Affinity Ki.

Consider `Cc1ccccc1-c1cccc2c1OC(CN)C2` (single isomer, unassigned; (-)) [Example 49, (−)-1-[7-(2-methylphenyl)-2,3-dihydro-1-benzofuran-2-yl]methanamine], for which, at human 5-HT2C receptor, the EC50 turned out to be 132 nM and the “5-HT2C Function Emax (%)” value is 80%. Moreover, the inhibitory constant (Ki) in assay [1] is 10 nM.
As to `CNCC1Cc2cc(F)cc(-c3ccccc3OC)c2O1` (racemic) [Example 443, (±)-{[5-fluoro-7-(2-methoxyphenyl)-2,3-dihydro-1-benzofuran-2-yl]methyl}methylamine], at human 5-HT2C receptor, the maximal effect (Emax) is 90% and the concentration giving a half-maximal response (EC50) came to 5 nM. Further, the inhibitory constant (Ki) in assay [1] was 4.8 nM.
The matching figures for `Cc1ccccc1-c1cc(C#N)cc2c1OC(CN)C2` (racemic) [Example 311, (±)-2-(aminomethyl)-7-(2-methylphenyl)-2,3-dihydro-1-benzofuran-5-carbonitrile]: 90%, 63 nM and 25 nM.
The matching figures for `Cc1cccc(C)c1-c1cc(F)cc2c1OC(CN)C2` (racemic) [Example 227, (±)-{[7-(2,6-dimethylphenyl)-5-fluoro-2,3-dihydro-1-benzofuran-2-yl]methyl}amine]: 95%, 3 nM and 1.5 nM.
The matching figures for `COc1ccc(-c2cc(Cl)cc3c2OC(CN)C3)c(OC)c1` (racemic) [Example 254, (±)-{[5-chloro-7-(2,4-dimethoxyphenyl)-2,3-dihydro-1-benzofuran-2-yl]methyl}amine]: 90%, 11 nM and 0.89 nM.
As for `NCC1Cc2cc(C(F)(F)F)cc(-c3ccccc3F)c2O1` (racemic) [Example 313, (±)-{[5-(trifluoromethyl)-7-(2-fluorophenyl)-2,3-dihydro-1-benzofuran-2-yl]methyl}amine], on human 5-HT2C receptor, the Emax amounted to 90% and the EC50 was determined as 70 nM. In addition, the Ki in assay [1] was 164 nM.
On the same counts, the results for `COc1ccc(OC)c(-c2cc(OC)cc3c2OC(CN)C3)c1` (racemic) [Example 371, (±)-{[7-(2,5-dimethoxyphenyl)-5-methoxy-2,3-dihydro-1-benzofuran-2-yl]methyl}amine] are 80%, 64 nM and 14 nM.
On the same counts, the results for `NCC1Cc2cc(Cl)cc(-c3ccc(Cl)cc3Cl)c2O1` (single isomer, unassigned; (-)) [Example 252, (−)-{[5-chloro-7-(2,4-dichlorophenyl)-2,3-dihydro-1-benzofuran-2-yl]methyl}amine] are 100%, 3 nM and 1.1 nM.
Regarding `CNCC1Cc2cc(C)cc(-c3ccc(Cl)cc3Cl)c2O1` (racemic) [Example 485, (±)-{[7-(2,4-dichlorophenyl)-5-methyl-2,3-dihydro-1-benzofuran-2-yl]methyl}methylamine], at human 5-HT2C receptor, the Emax stood at 90% and the EC50 was 32 nM. Besides, the inhibition constant (Ki) in assay [1] stood at 3 nM.
On to `COc1cc2c(c(-c3cccc(F)c3F)c1)OC(CN)C2` (racemic) [Example 361, (±)-{[7-(2,3-difluorophenyl)-5-methoxy-2,3-dihydro-1-benzofuran-2-yl]methyl}amine], for which, at human 5-HT2C receptor, the Emax was found to be 90% and the half-maximal effective concentration (EC50) was 73 nM. The inhibition constant Ki in assay [1] turned out to be 33 nM.
`CC(C)c1cccc2c1OC(CN)C2` (single isomer, unassigned; (+)) [Example 20, (+)-(7-isopropyl-2,3-dihydro-1-benzofuran-2-yl)methylamine]: at human 5-HT2C receptor, the half-maximal effective concentration (EC50) was 178 nM and the “5-HT2C Function Emax (%)” value was determined as 70%. For the same compound, the Ki in assay [1] is 24 nM.
For the compound `Cc1cccc(C)c1-c1cccc2c1OC(CN)C2` (racemic) [Example 56, (±)-1-[7-(2,6-dimethylphenyl)-2,3-dihydro-1-benzofuran-2-yl]methanamine], on human 5-HT2C receptor, the maximal response (Emax) is 100% and the concentration for a half-maximal effect (EC50) came out at 60 nM. The inhibition constant Ki in assay [1] was 1 nM.

For orientation: EC50 means the concentration that produces a half-maximal response. A word on the Ki: it is the equilibrium dissociation constant of an inhibitor or competing ligand from its target. By Emax is commonly meant the greatest response seen or fitted, relative to the assay's reference.

(Values after US7435837B2, “Dihydrobenzofuranyl alkanamine derivatives and methods for using same” (Wyeth, priority 2003, dated 2008).)
